Experimental data from BigSolDB 2.1.

O=S(=O)(c1ccc(O)cc1)c1ccccc1O
solubility (mole fraction)
Details | in 1,4-dioxane | in 2-butanone | in acetone | in acetonitrile | in ethanol | in ethyl acetate | in isopropanol | in methanol | in n-butanol
278.15 K | 0.0184 | 0.101 | 0.106 | 0.00974 | 0.0655 | 0.0386 | 0.0656 | 0.0569 | 0.0571
280.65 K | 0.0213 | 0.103 | 0.108 | 0.0109 | 0.0672 | 0.0402 | 0.068 | 0.0583 | 0.0584
283.15 K | 0.0242 | 0.105 | 0.11 | 0.0121 | 0.0689 | 0.0415 | 0.0708 | 0.0597 | 0.0597
285.65 K | 0.0272 | 0.107 | 0.112 | 0.0132 | 0.0706 | 0.0432 | 0.074 | 0.0612 | 0.0609
288.15 K | 0.0303 | 0.109 | 0.115 | 0.0144 | 0.0725 | 0.0449 | 0.0767 | 0.0627 | 0.0621
290.65 K | 0.0338 | 0.111 | 0.117 | 0.0156 | 0.0746 | 0.0465 | 0.0798 | 0.0643 | 0.0634
293.15 K | 0.0376 | 0.113 | 0.12 | 0.0169 | 0.0766 | 0.0482 | 0.0825 | 0.0661 | 0.0645
295.65 K | 0.0415 | 0.115 | 0.124 | 0.0179 | 0.0785 | 0.0501 | 0.0857 | 0.0677 | 0.0658
298.15 K | 0.0465 | 0.118 | 0.127 | 0.0192 | 0.0805 | 0.052 | 0.089 | 0.0696 | 0.0671
300.65 K | 0.0514 | 0.12 | 0.13 | 0.0204 | 0.0827 | 0.054 | 0.0925 | 0.0716 | 0.0682
303.15 K | 0.0557 | 0.122 | 0.133 | 0.0219 | 0.085 | 0.0562 | 0.0963 | 0.0739 | 0.0694
305.65 K | 0.0611 | 0.125 | 0.136 | 0.0236 | 0.0872 | 0.0585 | 0.1 | 0.0763 | 0.0707
308.15 K | 0.0664 | 0.127 | 0.139 | 0.0252 | 0.0898 | 0.0609 | 0.104 | 0.0786 | 0.0719
310.65 K | 0.0713 | 0.13 | 0.142 | 0.0271 | 0.0928 | 0.0637 | 0.109 | 0.0809 | 0.0734
313.15 K | 0.077 | 0.134 | 0.146 | 0.0295 | 0.0957 | 0.0669 | 0.113 | 0.0838 | 0.0751
